Literature values as cited in PMC8739290, “A phase 1b study of erlotinib and momelotinib for the treatment of EGFR-mutated, tyrosine kinase inhibitor-naive metastatic non-small cell lung cancer” (Cancer Chemotherapy and Pharmacology, 2021).

What was measured:
EGFR-mutated NSCLC lines = tested on: EGFR-mutated NSCLC lines; set-up: method as in PMID 18060032; conditions: multiple EGFR-mutated NSCLC lines; cited from earlier work
[1] = tested on: PC-9 xenograft tumors and EGFR-mutant transgenic mice; set-up: method as in PMID 24238495; conditions: cited from earlier work
HCC827 xenograft model = tested on: HCC827 xenograft model; set-up: method as in doi:10.1158/1538-7445.AM2018-2938; conditions: cited from earlier work

Compound: CC(C)(C)c1nc2c3ccc(F)cc3c3c(=O)[nH]ccc3c2[nH]1 [P6]
- effect on cell cycle (EGFR-mutated NSCLC lines): cell-cycle arrest at the G2/M phase
- effect on colony formation (EGFR-mutated NSCLC lines): suppressed colony formation
- effect on phosphorylated-STAT3 (pSTAT3) (EGFR-mutated NSCLC lines): uniformly abrogated pSTAT3

Compound: Cc1cc(Nc2nc(N[C@@H](C)c3ncc(F)cn3)ncc2Cl)n[nH]1 [AZD1480]
- single-agent activity ([1]; PC-9 xenograft tumors and EGFR-mutant transgenic mice): independent activity
- number of lung tumors [1]: decreased number of lung tumors
- overall survival [1]: improved overall survival

Compound: N#CCC1(n2cc(-c3ncnc4[nH]ccc34)cn2)CN(C2CCN(C(=O)c3ccnc(C(F)(F)F)c3F)CC2)C1 [itacitinib]
- single-agent activity (HCC827 xenograft model; HCC827 xenograft model): independent activity
- tumor growth inhibition in combination (HCC827 xenograft model; itacitinib in combination with erlotinib or osimertinib): synergistic tumor growth inhibition
